Ten compounds from patent publication US20080161232A1, “C5a Receptor Antagonist” (JERINI AG, priority 2005, published 2008) can be followed below.

For the test, the target named is T1, human C5aR(CD88) (Homo sapiens, UniProt P21730).
T1 construct: expressed in transfected cells; host or cells: rat basophilic leukemia cells (RBL)
T1 sequence (P21730 1-350): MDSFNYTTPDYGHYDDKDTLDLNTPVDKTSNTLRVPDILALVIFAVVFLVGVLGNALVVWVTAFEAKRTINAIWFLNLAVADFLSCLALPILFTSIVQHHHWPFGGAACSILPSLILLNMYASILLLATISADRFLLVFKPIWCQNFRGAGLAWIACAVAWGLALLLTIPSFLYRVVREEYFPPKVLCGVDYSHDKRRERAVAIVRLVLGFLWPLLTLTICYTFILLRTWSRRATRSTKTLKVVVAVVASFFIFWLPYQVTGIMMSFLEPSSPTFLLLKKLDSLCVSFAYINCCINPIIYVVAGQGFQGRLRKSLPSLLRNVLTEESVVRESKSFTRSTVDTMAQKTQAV
Briefly: Determination of the IC50 value in an enzyme release assay (functional assay, antagonistic activity). The note with it: antagonistic activity; IC50 group in enzyme release assay, RBL cells expressing human C5aR(CD88); read-out: activity (group). In kind it is cell-based.

Structures are written as SMILES. pIC50: −log10 of the molar value. Non-standard residues stand in square brackets, D forms with d. Residues, ends and D or L forms follow the SMILES beside them. N(3,4-(MeO)2phenethyl)Gly = COc1ccc(CCNCC(=O)O)cc1OC; Gly(N-(CH2)3N-pyrrolidone) = O=C(O)CNCCCN1CCCC1=O; Phe(4-F) = N[C@@H](Cc1ccc(F)cc1)C(=O)O; 1Nal = N[C@@H](Cc1cccc2ccccc12)C(=O)O; Bta = N[C@@H](Cc1csc2ccccc12)C(=O)O; Hyp = O=C(O)[C@@H]1C[C@@H](O)CN1; d(hLeu) = CC(C)CC[C@@H](N)C(=O)O; dCha = N[C@H](CC1CCCCC1)C(=O)O; NMeS = CN[C@@H](CO)C(=O)O; hSer = N[C@@H](CCO)C(=O)O; NMeA = CN[C@@H](C)C(=O)O; Orn = NCCC[C@H](N)C(=O)O; Nme = COCCNCC(=O)O

With `COCCN(CC(=O)N[C@H](CC1CCCCC1)C(=O)N[C@@H](Cc1csc2ccccc12)C(=O)N[C@@H](Cc1ccccc1)C(N)=O)C(=O)[C@H](CCCN)NC(=O)[C@H](Cc1ccccc1)NC(C)=O` [Compound 238, Ac-Phe-Orn-G25-cha-Bta-Phe-NH2] (Ac-F[Orn][Nme][dCha][Bta]F-NH2), the pIC50 is 6.70 to 7.30.
In the case of `CC(=O)N[C@@H](Cc1ccccc1)C(=O)N[C@@H](CCCN)C(=O)N(CCCN1CCCC1=O)CC(=O)N[C@H](CC1CCCCC1)C(=O)N[C@@H](Cc1csc2ccccc12)C(=O)N[C@@H](Cc1ccccc1)C(N)=O` [Compound 241, Ac-Phe-Orn-G30-cha-Bta-Phe-NH2] (Ac-F[Orn][Gly(N-(CH2)3N-pyrrolidone)][dCha][Bta]F-NH2), the pIC50 is 6.70 to 7.30.
To `COc1ccc(CCN(CC(=O)N[C@H](CC2CCCCC2)C(=O)N[C@@H](Cc2csc3ccccc23)C(=O)N[C@@H](Cc2ccccc2)C(N)=O)C(=O)[C@H](CCCN)NC(=O)[C@H](Cc2ccccc2)NC(C)=O)cc1OC` [Compound 242, Ac-Phe-Orn-G31-cha-Bta-Phe-NH2] (Ac-F[Orn][N(3,4-(MeO)2phenethyl)Gly][dCha][Bta]F-NH2) belongs 6.70 to 7.30.
To `CC(=O)N[C@@H](Cc1ccccc1)C(=O)N[C@@H](CCCN)C(=O)N[C@@H](CCO)C(=O)N[C@H](CC1CCCCC1)C(=O)N[C@@H](Cc1csc2ccccc12)C(=O)N[C@@H](Cc1ccccc1)C(N)=O` [Compound 243, Ac-Phe-Orn-Hse-cha-Bta-Phe-NH2] (Ac-F[Orn][hSer][dCha][Bta]F-NH2) belongs 6.70 to 7.30.
With `CC(=O)N[C@@H](Cc1ccccc1)C(=O)N[C@@H](CCCN)C(=O)N1C[C@H](O)C[C@H]1C(=O)N[C@H](CCC(C)C)C(=O)N[C@@H](Cc1csc2ccccc12)C(=O)N[C@@H](Cc1ccccc1)C(N)=O` [Compound 244, Ac-Phe-Orn-Hyp-hle-Bta-Phe-NH2] (Ac-F[Orn][Hyp][d(hLeu)][Bta]F-NH2) the figure was 6.70 to 7.30; with `CC(=O)N[C@@H](Cc1ccccc1)C(=O)N[C@@H](CCCN)C(=O)N1C[C@H](O)C[C@H]1C(=O)N[C@H](CCC(C)C)C(=O)N[C@@H](Cc1ccc(F)cc1)C(=O)N[C@@H](Cc1ccccc1)C(N)=O` [Compound 245, Ac-Phe-Orn-Hyp-hle-Pff-Phe-NH2] (Ac-F[Orn][Hyp][d(hLeu)][Phe(4-F)]F-NH2), 6.70 to 7.30.
In the case of `CC(=O)N[C@@H](Cc1ccccc1)C(=O)N[C@@H](CCCN)C(=O)N(C)[C@@H](C)C(=O)N[C@H](CC1CCCCC1)C(=O)N[C@@H](Cc1csc2ccccc12)C(=O)N[C@@H](Cc1ccccc1)C(N)=O` [Compound 246, Ac-Phe-Orn-NMA-cha-Bta-Phe-NH2] (Ac-F[Orn][NMeA][dCha][Bta]F-NH2), the pIC50 was 6.70 to 7.30.
To `CC(=O)N[C@@H](Cc1ccccc1)C(=O)N[C@@H](CCCN)C(=O)N(C)[C@@H](CO)C(=O)N[C@H](CC1CCCCC1)C(=O)N[C@@H](Cc1csc2ccccc12)C(=O)N[C@@H](Cc1ccccc1)C(N)=O` [Compound 247, Ac-Phe-Orn-NMS-cha-Bta-Phe-NH2] (Ac-F[Orn][NMeS][dCha][Bta]F-NH2) belongs 6.70 to 7.30; to `CC(=O)N[C@@H](Cc1ccccc1)C(=O)N[C@@H](CCCN)C(=O)N1CCC[C@H]1C(=O)N[C@H](CC1CCCCC1)C(=O)N[C@@H](Cc1cccc2ccccc12)C(=O)N[C@@H](Cc1ccccc1)C(N)=O` [Compound 248, Ac-Phe-Orn-Pro-cha-1Ni-Phe-NH2] (Ac-F[Orn]P[dCha][1Nal]F-NH2), 6.70 to 7.30; to `CC(=O)N[C@@H](Cc1ccccc1)C(=O)N[C@@H](CCCN)C(=O)N1CCC[C@H]1C(=O)N[C@H](CC1CCCCC1)C(=O)N[C@@H](Cc1csc2ccccc12)C(=O)N[C@@H](Cc1cccc2ccccc12)C(N)=O` [Compound 249, Ac-Phe-Orn-Pro-cha-Bta-1Ni—NH2] (Ac-F[Orn]P[dCha][Bta][1Nal]-NH2), 6.70 to 7.30.
